Results reported in PubChem BioAssay (NCI).
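Five compound concentrations were applied to cells in 96-well plates for 48 hours; endpoints were derived by simple linear interpolation of the resulting dose-response curve. The concentration for 50% growth inhibition is given as GI50. The concentration for full growth arrest is given as TGI.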

Tests used:
Experiment in all cases: inhibition of tumour cell growth, NCI panel, 48 h
[1] = tested on: UACC-62 melanoma
[2] = tested on: UO-31 renal
[3] = tested on: MOLT-4 leukemia
[4] = tested on: SF-295 CNS
[5] = tested on: HCT-116 colon
[6] = tested on: NCI-H522 lung
[7] = tested on: SK-MEL-28 melanoma
[8] = tested on: SW-620 colon
[9] = tested on: CCRF-CEM leukemia
[10] = tested on: IGROV1 ovarian

**Q.** Which results are given for `CC(CO)(CO)Nc1ncnc2ccccc12`?
**A.** TGI [1]: > 100 µM; TGI [2]: > 100 µM; TGI [3]: > 100 µM; TGI [4]: > 100 µM; TGI [5]: > 100 µM; TGI [6]: > 100 µM; TGI [7]: > 100 µM; TGI [8]: > 100 µM; TGI [9]: > 100 µM; TGI [10]: > 100 µM

**Q.** Which results are given for `Fc1ccc(-c2nnc3sc(COc4ccccc4Cl)nn23)cc1Cl`?
**A.** GI50 [1]: 38.4 µM; TGI [1]: > 100 µM; GI50 [2]: 32.7 µM; TGI [2]: > 100 µM; GI50 [3]: 24.5 µM; TGI [3]: > 100 µM; GI50 [4]: 61.8 µM; TGI [4]: > 100 µM; GI50 [5]: 29.1 µM; TGI [5]: > 100 µM; GI50 [6]: 18 µM; TGI [6]: 36.3 µM; GI50 [8]: 30.2 µM; TGI [8]: 74.5 µM; GI50 [9]: 20.8 µM; TGI [9]: 52.6 µM; GI50 [10]: 17.7 µM; TGI [10]: 62.8 µM

**Q.** What does the source list for `Nc1nnc(N)n1NC(=O)C(=O)Nc1ccc([N+](=O)[O-])cc1`?
**A.** TGI [1]: > 100 µM; TGI [2]: > 100 µM; TGI [3]: > 100 µM; TGI [4]: > 100 µM; TGI [5]: > 100 µM; TGI [6]: > 100 µM; TGI [7]: > 100 µM; TGI [8]: > 100 µM; TGI [9]: > 100 µM; TGI [10]: > 100 µM

**Q.** How did the TGI [1] turn out when `Cn1c(Sc2ccc(-c3cccnc3)n2C)ccc1-c1cccnc1` was run?
**A.** 29.7 µM

**Q.** What about the TGI [2] of the same compound?
**A.** 33.4 µM

**Q.** What about the TGI [3] of the same compound?
**A.** 7.78 µM

**Q.** And the TGI [4]?
**A.** 38.6 µM

**Q.** What about the TGI [5] of the same compound?
**A.** 25.7 µM

**Q.** What about the TGI [6] of the same compound?
**A.** 23.9 µM

**Q.** And the TGI [7]?
**A.** 26.9 µM

**Q.** What about the TGI [8] of the same compound?
**A.** 23.6 µM

**Q.** What about the TGI [9] of the same compound?
**A.** 4.53 µM

**Q.** What about the TGI [10] of the same compound?
**A.** 31.9 µM

**Q.** What does the source list for `COc1cc2c(cc1Oc1ccc(OC)c3c1CC1c4c(cc(OC)c(OC)c4-3)CCN1C)CC1c3c(cc(OC)c(OC)c3-2)CCN1C` (stereo not given)?
**A.** TGI [1]: 3.65 µM; TGI [2]: 17.7 µM; TGI [3]: 4.41 µM; TGI [4]: 6.11 µM; TGI [5]: 4.49 µM; TGI [6]: 4.66 µM; TGI [7]: 3.44 µM; TGI [8]: 5.73 µM; TGI [9]: 10.2 µM; TGI [10]: 18.7 µM

**Q.** Which TGI [1] does the source give for `COc1ccc(CC2c3cc(OC)c(OC)c(OC)c3CC[N+]2(C)C)cc1Oc1ccc(CC2c3cc4c(c(OC)c3CCN2C)OCO4)cc1` (stereo not given) here?
**A.** > 100 µM

**Q.** What about the TGI [2] of the same compound?
**A.** > 100 µM

**Q.** What about the TGI [3] of the same compound?
**A.** > 100 µM

**Q.** What about the TGI [4] of the same compound?
**A.** > 100 µM

**Q.** And the TGI [5]?
**A.** > 100 µM

**Q.** What about the TGI [6] of the same compound?
**A.** > 100 µM

**Q.** What about the TGI [7] of the same compound?
**A.** > 100 µM

**Q.** What about the TGI [8] of the same compound?
**A.** > 100 µM

**Q.** And the TGI [10]?
**A.** > 100 µM

**Q.** Which results are given for `C[n+]1ccc(-c2cc[n+](C)cc2)cc1`?
**A.** TGI [2]: > 100 µM; TGI [3]: > 100 µM; TGI [4]: > 37.6 µM; TGI [5]: > 44.5 µM; TGI [6]: > 34.2 µM; TGI [7]: > 100 µM; TGI [8]: > 100 µM; TGI [9]: > 100 µM; TGI [10]: > 38.1 µM

**Q.** `COc1cc(C)c2c(=O)c3c(oc2c1)C(=O)c1c(O)c(OC)cc(O)c1C3=O` was tested. Which TGI [1] did it give?
**A.** 4.61 µM

**Q.** And the TGI [2]?
**A.** 3.62 µM

**Q.** What about the TGI [3] of the same compound?
**A.** 4.6 µM

**Q.** And the TGI [4]?
**A.** 3.23 µM

**Q.** And the TGI [5]?
**A.** 3.42 µM

**Q.** And the TGI [6]?
**A.** 9.17 µM

**Q.** And the TGI [7]?
**A.** 7.44 µM

**Q.** And the TGI [8]?
**A.** 10.7 µM

**Q.** And the TGI [9]?
**A.** 5.12 µM

**Q.** And the TGI [10]?
**A.** 4.29 µM

**Q.** With `O=C(O)C1=NNC(C(=O)O)=NN1` as the compound, how does the TGI [1] read?
**A.** > 100 µM

**Q.** What about the TGI [2] of the same compound?
**A.** > 100 µM

**Q.** What about the TGI [3] of the same compound?
**A.** > 100 µM

**Q.** And the TGI [4]?
**A.** > 100 µM

**Q.** And the TGI [5]?
**A.** > 100 µM

**Q.** And the TGI [6]?
**A.** > 100 µM

**Q.** What about the TGI [7] of the same compound?
**A.** > 100 µM

**Q.** What about the TGI [8] of the same compound?
**A.** > 100 µM

**Q.** And the TGI [9]?
**A.** > 100 µM

**Q.** And the TGI [10]?
**A.** > 100 µM

**Q.** Which TGI [1] does the source give for `COc1cc(O)c2c(c1)C(=O)c1cc(C)cc(O)c1C2=O` here?
**A.** > 100 µM

**Q.** What about the TGI [2] of the same compound?
**A.** > 100 µM

**Q.** What about the TGI [3] of the same compound?
**A.** > 100 µM

**Q.** And the TGI [4]?
**A.** > 100 µM

**Q.** What about the TGI [5] of the same compound?
**A.** > 100 µM

**Q.** And the TGI [6]?
**A.** > 100 µM

**Q.** And the TGI [7]?
**A.** > 100 µM

**Q.** What about the TGI [8] of the same compound?
**A.** > 100 µM

**Q.** What about the TGI [9] of the same compound?
**A.** > 100 µM

**Q.** And the TGI [10]?
**A.** > 100 µM

**Q.** How did the TGI [1] turn out when `CC(C)=CCC[C@](C)(O[C@@H]1O[C@H](CO)[C@@H](O)[C@H](O)[C@H]1O)[C@H]1CC[C@]2(C)[C@@H]1[C@H](O)C[C@@H]1[C@@]3(C)CC[C@H](O)C(C)(C)[C@@H]3[C@@H](O[C@@H]3O[C@H](CO)[C@@H](O)[C@H](O)[C@H]3O)C[C@]12C` was run?
**A.** > 100 µM

**Q.** What about the TGI [2] of the same compound?
**A.** > 100 µM

**Q.** What about the TGI [4] of the same compound?
**A.** > 100 µM

**Q.** And the TGI [5]?
**A.** > 100 µM

**Q.** What about the TGI [6] of the same compound?
**A.** > 100 µM

**Q.** What about the TGI [7] of the same compound?
**A.** > 100 µM

**Q.** What about the TGI [8] of the same compound?
**A.** > 100 µM

**Q.** What about the TGI [9] of the same compound?
**A.** > 100 µM

**Q.** And the TGI [10]?
**A.** > 100 µM

**Q.** For `NC(=O)Nc1cc(O)ccc1N=Nc1ccc(S(=O)(=O)Nc2ccccn2)cc1`, which TGI [1] is on record?
**A.** > 100 µM

**Q.** What about the TGI [2] of the same compound?
**A.** > 100 µM

**Q.** What about the TGI [3] of the same compound?
**A.** > 100 µM

**Q.** And the TGI [4]?
**A.** > 100 µM

**Q.** And the TGI [5]?
**A.** > 100 µM

**Q.** And the TGI [6]?
**A.** > 100 µM

**Q.** And the TGI [7]?
**A.** > 100 µM

**Q.** What about the TGI [8] of the same compound?
**A.** > 100 µM

**Q.** And the TGI [9]?
**A.** > 100 µM

**Q.** And the TGI [10]?
**A.** > 100 µM

**Q.** What does the source list for `CCCCCCCCCCCCCCCCOCC(COP(=O)([O-])OCC[n+]1ccc(N(C)C)cc1)OCC` (stereo not given)?
**A.** TGI [1]: 29 µM; TGI [2]: 29.4 µM; TGI [3]: 18.4 µM; TGI [4]: 30.2 µM; TGI [5]: 24.5 µM; TGI [6]: 29.2 µM; TGI [7]: 32.4 µM; TGI [8]: 37.2 µM; TGI [9]: 24.9 µM; TGI [10]: 33.8 µM
